Reference: patent US20250382631A1, “PROTAC-CID SYSTEMS FOR USE IN MULTIPLEX GENE REGULATION” (William Marsh Rice University, priority 2022, published 2025)

Columns and labels:
wild-type FKBP12 = wild-type FKBP12 (Homo sapiens, UniProt P62942); conditions: refs (32, 36); cited from earlier work
[1] = tested on: three different genomic sites in HEK293T cells; test: Inducible C-to-T base editing by A3G5.13 (Sanger sequencing, EditR); type: cell-based, human; conditions: CBE A3G5.13 with dTAG-13 PROTAC-CID, 100 nM dTAG-13, 3 days, across three genomic sites, FIG. 3C
Method: Base editing measurement. Before transfection, HEK293T cells were plated into 96 well plates (Corning no. 3598) with 20% confluency. 0.5 μL Lipofectamine 2000 (Life Technology no. 11661089) was mixed with 25 μL DMEM for 5 mins incubation. 80 ng to 210 ng Plasmids (See Table 1 for plasmid dosage used in each condition) were then mixed with 25 μL DMEM and added into the Lipofectamine 2000 and DMEM mixture for 20 min incubation at the room temperature. Mixture was added into cells gently. After 12 h, supernatants were changed with fresh 10% FBS (Thermo Fisher Scientific no. 10437028) DMEM medium (Thermo Fisher Scientific no. 10569044), Puromycin (10 μg/mL Thermo Fisher Scientific no. A1113803) and supplied with 100 nM dTAG-13 (TOCRIS no. 6605/5) or DMSO (Sigma, no. D8418). After 3 days, cell medium was removed and cells were treated with 100 μL lysis buffer (10 mM tris-HCl (pH=7.5), 0.05% SDS, and proteinase K (25 μg/mL, Thermo Fisher Scientific no. 01169965)) followed by 37° C. 1 h, 58° C. 30 min and inactivated at 95° C. for 20 min. The cell lysis was amplified by 2×Phanta Max Master Mix (Vazyme no. p515) following the program: 95° C. 3 min, 95° C. 15s and 58° C. 15s with 72° C. for 35 cycles, and 72° C. 5 min. The editing efficiency was measured by Sanger sequencing and analyzed by EditR (https://moriaritylab.shinyapps.io/editr_v10/) (Kluesner et al., 2018).

[2] = after MZ1 administration, FIG. 23
[3] = tested on: pUAS-2-driven Fluc in HEK293T cells co-infected with Virus a and Virus b; test: AAV infection of HEK293T cells, luciferase bioluminescence; type: cell-based, human; conditions: 100 nM MZ1, three days post-infection, FIG. 4B
Method: AAV infection on HEK293T cells. Before infection, HEK293T cells were seeded into 96 well plates (Corning no. 3610). When the confluency reaching 50%, 1 μL of each purified AAV virus (Virus a and Virus b in FIGS. 4 and 19) were added into the supernatant of HEK293T cells. 100 nM of MZ1 or DMSO was added into the supernatant. Three days post-infection, cells with 80 μL medium were treated with 40 μL lysis buffer (500 mM DTT, 10 mM coenzyme A, 100 mM ATP, 80 mg/mL D-luciferin, Triton lysis buffer (0.1082 M Tris-HCl, 0.0419 M Tris-Base, 75 mM NaCl, 3 mM MgCl2)). To lysis the cells Plate was shaken by plate reader Infinite M200 (TECAN) with 20 seconds in “Orbital” mode with frequency of 432 rpm and Amplitude of 1 mm. Relative light units of luminescence was recorded by plate reader Infinite M200 (TECAN) with 1000 ms integration time using Megellan v1.7 (TECAN).

[4] = tested on: luciferase expression in the liver of FVB mice injected with Virus a and Virus b; test: In vivo PROTAC-CID gene activation via AAV, IVIS bioluminescence imaging
Method: AAV production and Mouse for in vivo delivery. […] FVB mice were purchased from the Jackson Laboratory.
IVIS imaging system and quantification. Luciferase […] intensity was measured by the IVIS imaging system (PerkinElmer). Mice were anesthetized with a mixture of isoflurane and oxygen. and then intraperitoneally (i.p.) injected with D-luciferin (15 mg/ml, GoldBio no. LUCNA-100). 5 mins after the D-luciferin injection, mice were imaged with IVIS imaging system. Quantitative analysis of imaging signals (luminescence counts) was processed by Living Imaging software (PerkinElmer).

Chain of wild-type FKBP12 (P62942 whole entry, species assumed): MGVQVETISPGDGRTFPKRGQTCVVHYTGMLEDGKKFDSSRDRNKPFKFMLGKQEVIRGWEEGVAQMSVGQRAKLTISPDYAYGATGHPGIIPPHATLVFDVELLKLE

Compound	degradation of wild-type FKBP12 (wild-type FKBP12)	C-to-T editing [1]	abnormality or body weight change [2]	increase in luciferase bioluminescence intensity [3]	increase of the luciferase expression in the liver compared with the group without MZ1 ([4]; 10 mg/kg MZ1 intraperitoneally, 25 days after AAV, imaging 6 h post-MZ1, FIG. 4E)	Fluc expression after second MZ1 injection ([4]; second injection ten days after the first, 50 mg/kg i.p., FIGS. 4G and 4H)
CC[C@H](C(=O)N1CCCC[C@H]1C(=O)O[C@H](CCc1ccc(OC)c(OC)c1)c1ccccc1OCC(=O)NCCCCCCOc1cccc2c1C(=O)N(C1CCC(=O)NC1=O)C2=O)c1cc(OC)c(OC)c(OC)c1 (stereo partly drawn) [dTAG-13]	do not degrade wild-type FKBP12	30-50%	–	–	–	–
Cc1ncsc1-c1ccc(CNC(=O)[C@@H]2C[C@@H](O)CN2C(=O)[C@@H](NC(=O)COCCOCCOCCNC(=O)C[C@@H]2N=C(c3ccc(Cl)cc3)c3c(sc(C)c3C)-n3c(C)nnc32)C(C)(C)C)cc1 [MZ1]	–	–	no abnormality or body weight change	more than 60 fold	~7 fold	elevated expression of Fluc with a comparable gene activation level as the first administration
